Results as given in patent US20260042755A1, “GPR6 INVERSE AGONISTS” (MapLight Therapeutics, Inc., priority 2022, published 2026).

What was measured:
GPR3 = biological target: T1, GPR3 (Homo sapiens, UniProt P46089); test: GPR3 antagonist functional cAMP assay (LANCE Ultra cAMP TR-FRET, CHO cells stably expressing GPR3); type: cell-based
T1 construct: expressed in transfected cells; host or cells: CHO cells
Method in brief: (§1)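 Compounds, at 0.1% final DMSO, acted on the cells for 45 minutes at 37 °C in the presence of the phosphodiesterase inhibitor Ro 20-1724 (150 μM). After lysis and detection, plates were shaken 1 h at room temperature and emission at 665 nm was recorded. Normalized data gave IC50 values.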

GPR6 = biological target: T2, GPR6 (Homo sapiens, UniProt P46095); test: GPR6 antagonist functional cAMP assay (LANCE Ultra cAMP TR-FRET, CHO cells stably expressing GPR6); type: cell-based
T2 construct: expressed in transfected cells; host or cells: CHO cells
T2 sequence (P46095 whole entry): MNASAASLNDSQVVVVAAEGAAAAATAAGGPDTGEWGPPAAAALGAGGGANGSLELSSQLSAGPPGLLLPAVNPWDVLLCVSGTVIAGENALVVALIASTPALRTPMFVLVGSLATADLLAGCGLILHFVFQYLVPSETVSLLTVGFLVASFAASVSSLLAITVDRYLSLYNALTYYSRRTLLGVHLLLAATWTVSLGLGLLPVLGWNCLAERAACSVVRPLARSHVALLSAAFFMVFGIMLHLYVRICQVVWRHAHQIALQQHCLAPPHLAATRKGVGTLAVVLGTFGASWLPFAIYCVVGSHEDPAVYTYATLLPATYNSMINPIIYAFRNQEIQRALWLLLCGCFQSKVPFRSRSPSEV
Method in brief: as §1

[1] = CHO cells stably expressing GPR3, cAMP assay (Example 24)
[2] = CHO cells stably expressing GPR6, cAMP assay (Example 24)
[3] = CHO cells stably expressing GPR3, cAMP assay
[4] = CHO cells stably expressing GPR6, cAMP assay
[5] = procedure as described in Example 24

T1 sequence (P46089 whole entry, species assumed): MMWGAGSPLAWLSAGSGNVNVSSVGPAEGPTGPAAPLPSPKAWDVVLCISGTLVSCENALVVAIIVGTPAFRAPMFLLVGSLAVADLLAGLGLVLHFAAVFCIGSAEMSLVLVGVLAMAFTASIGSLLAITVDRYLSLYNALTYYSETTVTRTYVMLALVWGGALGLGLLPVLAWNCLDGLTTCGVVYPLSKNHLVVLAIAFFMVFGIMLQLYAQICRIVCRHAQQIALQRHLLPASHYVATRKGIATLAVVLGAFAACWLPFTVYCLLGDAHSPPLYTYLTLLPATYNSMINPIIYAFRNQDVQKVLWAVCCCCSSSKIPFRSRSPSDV

Row | Molecule | IC50 (GPR3; [1]) | IC50 (GPR6; [2]) | IC50 (GPR3; procedure of Example 24) | IC50 (GPR6; procedure of Example 24) | other results
1 | COC(=O)N1CCc2nc(N3CCC(Oc4ccc(F)cc4F)CC3)c(-c3cn[nH]c3)nc2C1 [Compound 154, methyl 2-[4-(2,4-difluorophenoxy)piperidin-1-yl]-3-(1H-pyrazol-4-yl)-5H,6H,7H,8H-pyrido[3,4-b]pyrazine-6-carboxylate] | 1000 to 30000 nM | < 100 nM | – | – | –
2 | CC(C)(O)[C@@H](O)c1cc2nc(N3CCN(Cc4ccccc4F)CC3)c(-c3cnn(C4CC4)c3)nc2cn1 (single isomer, unassigned) [Compound 742] | – | – | 1000 to 30000 nM | 100 to 1000 nM | –
3 | CC(=O)N1CCc2nc(N3CCC(Oc4ccc(C#N)cc4F)CC3)c(-c3cnn(C)c3)nc2C1 [Compound 500, 4-{1-[6-acetyl-3-(1-methyl-4-pyrazolyl)-5,6,7,8-tetrahydro-1,4,6-triaza-2-naphthyl]-4-piperidyloxy}-3-fluorobenzonitrile] | – | – | – | – | IC50 (GPR3; [3]): 1000 to 30000 nM; IC50 (GPR6; [4]): 1000 to 30000 nM
4 | Cn1cc(-c2nc3cnc(C(O)CN)cc3nc2N2CCC(Oc3ccc(F)cc3F)CC2)cn1 (stereo not shown) [Compound 309, 2-amino-1-(2-(4-(2,4-difluorophenoxy)piperidin-1-yl)-3-(1-methyl-1H-pyrazol-4-yl)pyrido[3,4-b]pyrazin-7-yl)ethan-1-ol] | – | – | 1000 to 30000 nM | 100 to 1000 nM | –
5 | Fc1ccc(CN2CCN(c3nc4ccncc4nc3-c3cn[nH]c3)CC2)c(F)c1 [Compound 52, 1-[(2,4-difluorophenyl)methyl]-4-[3-(1H-pyrazol-4-yl)pyrido[3,4-b]pyrazin-2-yl]piperazine] | – | – | – | – | IC50 (GPR3; [5]): 1000 to 30000 nM; IC50 (GPR6; [5]): 100 to 1000 nM
6 | COc1ccc(OC2CCN(c3nc4c(nc3-c3cnn(C)c3)CN(C(C)=O)CC4)CC2)cc1 [Compound 425, 1-{2-[4-(4-methoxyphenoxy)piperidin-1-yl]-3-(1-methyl-1H-pyrazol-4-yl)-5H,6H,7H,8H-pyrido[3,4-b]pyrazin-6-yl}ethan-1-one] | 1000 to 30000 nM | 1000 to 30000 nM | – | – | –
7 | CC(=O)N1Cc2nc(-c3cnn(C)c3)c(N3CCC(Oc4ccc(F)cc4F)CC3)nc2C(C)C1 (stereo not shown) [Compound 540, 1-{2-[4-(2,4-difluorophenoxy)-1-piperidyl]-8-methyl-3-(1-methyl-4-pyrazolyl)-5,6,7,8-tetrahydro-1,4,6-triaza-6-naphthyl}-1-ethanone] | – | – | – | – | IC50 (GPR3; [3]): 1000 to 30000 nM; IC50 (GPR6; [4]): < 100 nM
8 | CC(C)(O)C(O)c1cc2nc(N3CCN(Cc4ccccc4F)CC3)c(-c3cnn(C(F)F)c3)nc2cn1 (stereo not shown) [Compound 559, 1-{3-[1-(difluoromethyl)-4-pyrazolyl]-2-{4-[(o-fluorophenyl)methyl]-1-piperazinyl}-1,4,6-triaza-7-naphthyl}-2-methyl-1,2-propanediol] | – | – | – | – | IC50 (GPR3; [3]): 1000 to 30000 nM; IC50 (GPR6; [4]): 100 to 1000 nM
9 | COc1ccc(C(=O)N2CCN(c3nc4c(nc3-c3cnn(C)c3)CN(C(C)=O)CC4)CC2)cc1 [Compound 283, 1-{2-[4-(4-methoxybenzoyl)piperazin-1-yl]-3-(1-methyl-1H-pyrazol-4-yl)-5H,6H,7H,8H-pyrido[3,4-b]pyrazin-6-yl}ethan-1-one] | – | – | 1000 to 30000 nM | 1000 to 30000 nM | –
10 | CCn1cc(-c2nc3c(nc2N2CCC(Oc4ccc(F)cc4F)CC2)CCN(C[C@@H](O)CO)C3)cn1 (single isomer, unassigned) [Compound 290] | – | – | 1000 to 30000 nM | 100 to 1000 nM | –
11 | CC(C)(O)C(C)(O)c1cc2nc(-c3cnn(CF)c3)c(N3CCC(Oc4ccc(F)cc4F)CC3)nc2cn1 (stereo not shown) [Compound 661, 2-{3-[4-(2,4-difluorophenoxy)-1-piperidyl]-2-[1-(fluoromethyl)-4-pyrazolyl]-1,4,6-triaza-7-naphthyl}-3-methyl-2,3-butanediol] | – | – | 1000 to 30000 nM | 100 to 1000 nM | –
12 | CC(=O)N1CCc2nc(N3CCC(Oc4ccc(F)cc4F)CC3)c(-c3cnn(CC4CC4)c3)nc2C1 [Compound 209, 1-{3-[1-(cyclopropylmethyl)-1H-pyrazol-4-yl]-2-[4-(2,4-difluorophenoxy)piperidin-1-yl]-5H,6H,7H,8H-pyrido[3,4-b]pyrazin-6-yl}ethan-1-one] | 1000 to 30000 nM | 100 to 1000 nM | – | – | –
13 | CN(C)C(=O)N1CCc2nc(N3CCC(Oc4ccc(F)cc4F)CC3)c(-c3ccc(F)c(N)n3)nc2C1 [Compound 629, 6-{6-(N,N-dimethylcarbamoyl)-2-[4-(2,4-difluorophenoxy)-1-piperidyl]-5,6,7,8-tetrahydro-1,4,6-triaza-3-naphthyl}-3-fluoro-2-pyridylamine] | – | – | 1000 to 30000 nM | < 100 nM | –
14 | CCOc1cncc(-c2nc3c(nc2N2CCC(Oc4ccc(F)cc4F)CC2)CCN(C(C)=O)C3)n1 [Compound 233, 1-{2-[4-(2,4-difluorophenoxy)piperidin-1-yl]-3-(6-ethoxypyrazin-2-yl)-5H,6H,7H,8H-pyrido[3,4-b]pyrazin-6-yl}ethan-1-one] | 1000 to 30000 nM | 1000 to 30000 nM | – | – | –
15 | COc1ccnc(-c2nc3c(nc2N2CCC(Oc4ccc(F)cc4F)CC2)CCN(C(C)=O)C3)c1 [Compound 7, 1-(2-(4-(2,4-difluorophenoxy)piperidin-1-yl)-3-(4-methoxypyridin-2-yl)-7,8-dihydropyrido[3,4-b]pyrazin-6(5H)-yl)ethan-1-one] | – | – | – | – | IC50 (GPR3; [5]): 100 to 1000 nM; IC50 (GPR6; [5]): 1000 to 30000 nM
16 | O=C(C1CCCN1)N1CCc2nc(N3CCC(Oc4ccc(F)cc4F)CC3)c(-c3cn[nH]c3)nc2C1 (stereo not shown) [Compound 178, 4-(2,4-difluorophenoxy)-1-[3-(1H-pyrazol-4-yl)-6-(pyrrolidine-2-carbonyl)-5H,6H,7H,8H-pyrido[3,4-b]pyrazin-2-yl]piperidine] | 1000 to 30000 nM | 100 to 1000 nM | – | – | –
17 | 1-(3-{6-acetyl-2-[4-(2,4- difluorophenoxy)piperidin- 1-yl]-5H,6H,7H,8H- pyrido[3,4-b]pyrazin-3- yl}-4H,5H,6H,7H- pyrazolo[1,5-a]pyrazin-5- yl)ethan-1-one [Compound 106] | 1000 to 30000 nM | 1000 to 30000 nM | – | – | –
18 | CC(=O)N1CCc2nc(N3CCC(Cc4ccc(F)cc4F)C3)c(-c3cnn(C)c3)nc2C1 (stereo not shown) [Compound 738, 1-(2-{3-[(2,4-difluorophenyl)methyl]-1-pyrrolidinyl}-3-(1-methyl-4-pyrazolyl)-5,6,7,8-tetrahydro-1,4,6-triaza-6-naphthyl)-1-ethanone] | – | – | 1000 to 30000 nM | 1000 to 30000 nM | –
19 | C[C@H](O)[C@H](O)c1cc2nc(N3CCC(Oc4ccc(F)cc4F)CC3)c(-c3cnn(C)c3)nc2cn1 (single isomer, unassigned) [Compound 471] | 1000 to 30000 nM | 100 to 1000 nM | – | – | –
20 | COc1ccc(OC2CCN(c3nc4c(nc3-c3cnn(C)c3)CN(C(C)=O)CC4)CC2)cc1F [Compound 502, 1-{2-[4-(3-fluoro-4-methoxyphenoxy)-1-piperidyl]-3-(1-methyl-4-pyrazolyl)-5,6,7,8-tetrahydro-1,4,6-triaza-6-naphthyl}-1-ethanone] | – | – | – | – | IC50 (GPR3; [3]): 1000 to 30000 nM; IC50 (GPR6; [4]): 100 to 1000 nM
21 | COCC1CC1c1nc2c(nc1N1CCC(Oc3ccc(F)cc3F)CC1)CCN(C(C)=O)C2 (stereo not shown) [Compound 463, 1-(2-(4-(2,4-difluorophenoxy)piperidin-1-yl)-3-(2-(methoxymethyl)cyclopropyl)-7,8-dihydropyrido[3,4-b]pyrazin-6(5H)-yl)ethan-1-one] | 1000 to 30000 nM | 100 to 1000 nM | – | – | –
22 | CC(=O)N1CCc2nc(N3CCC(C(O)c4ccc(F)cc4F)CC3)c(-c3ccc(F)c(N)n3)nc2C1 (stereo not shown) [Compound 703, 1-[3-(6-amino-5-fluoro-2-pyridyl)-2-{4-[(2,4-difluorophenyl)hydroxymethyl]-1-piperidyl}-5,6,7,8-tetrahydro-1,4,6-triaza-6-naphthyl]-1-ethanone] | – | – | 1000 to 30000 nM | 1000 to 30000 nM | –
23 | CC(=O)N1CCc2nc(N3CCC(Oc4ccc(F)cc4F)CC3)c(-c3cccn(C)c3=O)nc2C1 [Compound 113, 3-{6-acetyl-2-[4-(2,4-difluorophenoxy)piperidin-1-yl]-5H,6H,7H,8H-pyrido[3,4-b]pyrazin-3-yl}-1-methyl-1,2-dihydropyridin-2-one] | ≥ 30000 nM | 1000 to 30000 nM | – | – | –
24 | FCn1cc(-c2nc3cc(Cl)ncc3nc2N2CCN(Cc3ccc(F)cc3F)CC2)cn1 [Compound 761, 7-chloro-3-{4-[(2,4-difluorophenyl)methyl]-1-piperazinyl}-2-[1-(fluoromethyl)-4-pyrazolyl]-1,4,6-triazanaphthalene] | – | – | 1000 to 30000 nM | 100 to 1000 nM | –
25 | CC(C)(O)[C@](C)(O)c1cc2nc(-c3cnn(C4CC4)c3)c(N3CCN(Cc4ccccc4F)CC3)nc2cn1 (single isomer, unassigned) [Compound 775] | – | – | 1000 to 30000 nM | 100 to 1000 nM | –
26 | COC1CN(c2cc3nc(N4CCC(Oc5ccc(F)cc5F)CC4)c(-c4cnn(C)c4)nc3cn2)C1 [Compound 450, 4-(2,4-difluorophenoxy)-1-[7-(3-methoxyazetidin-1-yl)-3-(1-methyl-1H-pyrazol-4-yl)pyrido[3,4-b]pyrazin-2-yl]piperidine] | 1000 to 30000 nM | 1000 to 30000 nM | – | – | –
27 | CC(=O)N1CCc2nc(N3CCC(Oc4ccc(F)cc4F)CC3)c(-c3cccc(OC(C)(C)C)n3)nc2C1 [Compound 23, 1-{3-[6-(tert-butoxy)pyridin-2-yl]-2-[4-(2,4-difluorophenoxy)piperidin-1-yl]-5H,6H,7H,8H-pyrido[3,4-b]pyrazin-6-yl}ethan-1-one] | – | – | – | – | IC50 (GPR3; [5]): 100 to 1000 nM; IC50 (GPR6; [5]): 1000 to 30000 nM
28 | CC(=O)N1CCc2nc(N3CCC(Oc4ccc(Br)cn4)CC3)c(-c3cnn(C)c3)nc2C1 [Compound 513, 1-{2-[4-(5-bromo-2-pyridyloxy)-1-piperidyl]-3-(1-methyl-4-pyrazolyl)-5,6,7,8-tetrahydro-1,4,6-triaza-6-naphthyl}-1-ethanone] | – | – | – | – | IC50 (GPR3; [3]): 1000 to 30000 nM; IC50 (GPR6; [4]): 1000 to 30000 nM
29 | CC(C)(O)[C@@](C)(O)c1cc2nc(-c3cnn(C4CC4)c3)c(N3CCN(Cc4ccccc4F)CC3)nc2cn1 (single isomer, unassigned) [Compound 776] | – | – | 1000 to 30000 nM | 100 to 1000 nM | –
